Results as given in patent publication US10398689B2, “Benzopiperidine derivative, preparation method thereof and medical use thereof” (Jiangsu Hengrui Medicine Co., Ltd., priority 2015, dated 2019).

Legend:
ER (estrogen receptor) = target: T1, ER (estrogen receptor) (Homo sapiens, UniProt P03372); test: Inhibition of the binding of estrogen (E) to estrogen receptor (ER), MCF-7/ERE-luciferase reporter cells; format: cell-based; conditions: MCF-7/ERE-luciferase cells, 0.1 nM estradiol, 24 hours, chemiluminescence; read-out: IC50 value of inhibition effect on the binding of E to ER
T1 construct: MCF-7/ERE-luciferase monoclonal cells were selected by transfection of MCF-7; host or cells: MCF-7/ERE-luciferase (only the ERE-luciferase reporter was transfected)
T1 sequence (P03372 1-595): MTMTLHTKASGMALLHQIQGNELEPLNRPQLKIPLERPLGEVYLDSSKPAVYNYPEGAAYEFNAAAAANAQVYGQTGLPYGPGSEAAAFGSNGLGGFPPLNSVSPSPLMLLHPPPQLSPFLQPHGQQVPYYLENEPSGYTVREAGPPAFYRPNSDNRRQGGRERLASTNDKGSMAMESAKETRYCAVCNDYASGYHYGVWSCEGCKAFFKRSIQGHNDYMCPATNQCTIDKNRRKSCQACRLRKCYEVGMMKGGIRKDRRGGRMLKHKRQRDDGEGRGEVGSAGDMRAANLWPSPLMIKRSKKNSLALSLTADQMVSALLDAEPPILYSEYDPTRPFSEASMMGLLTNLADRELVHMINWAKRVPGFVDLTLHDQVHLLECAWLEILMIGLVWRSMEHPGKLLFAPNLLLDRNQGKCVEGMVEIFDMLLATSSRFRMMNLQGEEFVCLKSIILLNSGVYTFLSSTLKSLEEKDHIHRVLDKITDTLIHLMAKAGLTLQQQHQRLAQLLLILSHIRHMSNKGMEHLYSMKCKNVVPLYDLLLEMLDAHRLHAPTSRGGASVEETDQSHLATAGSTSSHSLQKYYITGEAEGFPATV
Method: The compounds of the present invention have an inhibition effect on the binding of E (estrogen) to ER (estrogen receptor), thereby blocking the binding of a complex of E and ER complex to ERE (estrogen responsive element), and subsequently blocking the expression of downstream luciferase protein.
The inhibition effect of the compounds on the binding of E to ER in vitro was tested by the following method.
The object of this experiment was to determine the inhibition effect of the compounds on the binding of E to ER, and the in vitro activity of the compounds was evaluated according to the IC50 values.
ERE was cloned into the upstream of the luciferase gene, and MCF-7/ERE-luciferase monoclonal cells were selected by transfection of MCF-7 (Cell Bank of Chinese Academy of Sciences typical culture preservation Committee, TCHu74). MCF-7/ERE-luciferase cells were inoculated into the MEM medium (hyclone, SH30024.01B) containing 10% charcoal stripped FBS (Moregate, FBSF), 1% sodium pyruvate (Sigma, S8636), 1% nonessential amino acids (Sigma, M7145) and 500 μg/ml G418 in a 96-well plates with a density of 30,000 cells/well, and the cells were incubated under the conditions of 37° C., and 5% CO2. The drug was prepared as a 20 mM stock solution that was later diluted with 100% DMSO in 10 fold concentration gradient, and then diluted 20-fold with the medium DMEM. After incubation for 24 hours, the medium was removed, then 0.1 nM estradiol (Sigma, E2758) and 10 μl of the drug diluted with the medium were added to each well, and the control group was added with DMSO. The plate was gently shaken and incubated in a incubator at 37° C., 5% CO2. After 24 hours, the cell culture medium was discarded, Then, 50 μl of the prepared luciferase substrate (Promega, E6110) was added to each well, and the plate was placed in the dark at room temperature for 10-15 minutes, then the chemiluminescence signal value was determined.
The inhibition effect of the compounds of the present invention on the binding of E to ER was tested by the experiment described above. The values of the chemiluminescence signal vs the logarithmic concentrations of the compounds were plotted using Graphpad Prism, and the measured IC50 values are shown in Table 1.

MCF7 cells = test: Inhibition of the proliferation of MCF7 cells (Cell Titer-Glo); format: cell-based; conditions: Homo sapiens, MCF-7 cells, 72 hours, read-out: IC50 value of inhibition effect on the proliferation of MCF7 cells
Method: The object of this experiment was to determine the inhibition effect of the compounds on the proliferation activity of MCF7 cells, and the in vitro activity of the compounds was evaluated according to the IC50 values.
MCF-7 cells (Cell Bank of Chinese Academy of Sciences typical culture preservation Committee, TChu 74) were inoculated into the MEM medium (Hyclone, SH30024.01B) containing 10% FBS (Gibco, 10099-141), 1% sodium pyruvate (Sigma, S8636), and 1% nonessential amino acids (Sigma, M7145) in a 96-well plate with a density of 40,000 cells/well, and the cells were incubated under the conditions of 37° C., and 5% CO2. The compound was prepared as a 20 mM stock solution that was later diluted to 1000× final concentration with 100% DMSO, and then diluted with 20-fold medium containing 2% FBS. After incubation for 24 hours, the medium was removed and 90 μl of the medium containing 2% FBS and 10 μl of the drug were added to each well, 10 […] of DMSO was added to the control group, and the blank group contained only 100 μl medium containing 2% FBS. The plate was gently shaken and incubated in a incubator at 37° C., 5% CO2. After 72 hours later, 50 μl of mixed Cell Titer-Glo (Promega, G7571) was added to each well. The plate was shaken until the ingredients were mixed uniformly, and placed at room temperature for 10 minutes, then the chemiluminescence signal value was determined. The inhibition effect of the compound AZD9496 at 100 nM on the proliferation of MCF-7 cells was set to 100%, the maximum inhibition rate of other compounds=(chemiluminescence signal valuenegative control−chemiluminescence signal valuecompound 100 nm)/(chemiluminescence signal valuenegative control−chemiluminescence signal valueAZD9496 100 nm)×100%, and the negative control was a well with 0.5% DMSO.
The values of the chemiluminescence signals vs the logarithmic concentrations of the compounds were plotted using Graghpad Prism to obtain the IC50 values.

SMILES	IC50 (ER (estrogen receptor)) [nM]	IC50 (MCF7 cells) [nM]
Cc1ncc(-c2ccc3c(c2)CC(C)N(c2ccc(C4CC4)cc2)C3c2ccc(/C=C/C(=O)O)cc2)s1 [Example 35, (E)-3-(4-((1R,3R/1S,3S)-2-(4-Cyclopropylphenyl)-3-methyl-6-(2-methylthiazol-5-yl)-1,2,3,4-tetrahydroisoquinolin-1-yl)phenyl)acrylic acid]	1	1.03
CCn1cc(-c2ccc3c(c2)C[C@@H](C)N(c2ccc(C(C)C)cc2)[C@@H]3c2c(F)cc(/C=C/C(=O)O)cc2F)cn1 [Example 38, (E)-3-(4-((1S,3R)-6-(1-Ethyl-1H-pyrazol-4-yl)-2-(4-isopropylphenyl)-3-methyl-1,2,3,4-tetrahydroisoquinolin-1-yl)-3,5-difluorophenyl)acrylic acid]	0.18	0.38
CC1Cc2cc(-c3cnn(C(F)F)c3)ccc2C(c2ccc(/C=C/C(=O)O)cc2)N1c1ccc(C2CC2)cc1 (centres unmarked) [Example 29]	1.26	2.36
CCCc1ccc(N2C(C)Cc3cc(-c4cnn(C)c4)ccc3C2c2ccc(/C=C/C(=O)O)cc2)cc1 [Example 20, (E)-3-(4-((1R,3R/1S,3S)-3-Methyl-6-(1-methyl-1H-pyrazol-4-yl)-2-(4-propylphenyl)-1,2,3,4-tetrahydroisoquinolin-1-yl)phenyl)acrylic acid]	–	4.53
CCn1cc(-c2ccc3c(c2)CC(C)N(c2ccc(C4CC4)cc2)C3c2ccc(/C=C/C(=O)O)cc2F)cn1 [Example 25, (E)-3-(4-((1S,3R/1R,3S)-2-(4-Cyclopropylphenyl)-6-(1-ethyl-1H-pyrazol-4-yl)-3-methyl-1,2,3,4-tetrahydroisoquinolin-1-yl)-3-fluorophenyl)acrylic acid]	1.62	0.89
CCn1cc(-c2ccc3c(c2)CC(C)N(c2ccc(C4CC4)cc2)C3c2ccc(/C=C/C(=O)O)cc2)cn1 [Example 13, (E)-3-(4-((1R,3R/1S,3S)-2-(4-Cyclopropylphenyl)-6-(1-ethyl-1H-pyrazol-4-yl)-3-methyl-1,2,3,4-tetrahydroisoquinolin-1-yl)phenyl)acrylic acid]	0.27	1.12
CCOc1ccc(N2C(C)Cc3cc(-c4cnn(C)c4)ccc3C2c2ccc(/C=C/C(=O)O)cc2)cc1 [Example 44, (E)-3-(4-((1R,3R/1S,3S)-2-(4-Ethoxyphenyl)-3-methyl-6-(1-methyl-1H-pyrazol-4-yl)-1,2,3,4-tetrahydroisoquinolin-1-yl)phenyl)acrylic acid]	7.57	–
CC1Cc2cc(-c3cnn(C)c3)ccc2C(c2ccc(/C=C/C(=O)O)cc2)N1c1ccc(C(C)(C)C)cc1 [Example 41, (E)-3-(4-((1R,3R/1S,3S)-2-(4-(tert-Butyl)phenyl)-3-methyl-6-(1-methyl-1H-pyrazol-4-yl)-1,2,3,4-tetrahydroisoquinolin-1-yl)phenyl)acrylic acid]	8.08	–
Cc1ccc(N2[C@H](c3ccc(/C=C/C(=O)O)cc3)c3ccc(-c4cnn(C)c4)cc3C[C@H]2C)cc1 [Example 34]	5.42	–
CCn1cc(-c2ccc3c(c2)CC(C)N(c2ccc(C4CC4)c(F)c2)C3c2ccc(/C=C/C(=O)O)cc2)cn1 [Example 26, (E)-3-(4-((1R,3R/1S,3S)-2-(4-Cyclopropyl-3-fluorophenyl)-6-(1-ethyl-1H-pyrazol-4-yl)-3-methyl-1,2,3,4-tetrahydroisoquinolin-1-yl)phenyl)acrylic acid]	6.76	–
CC1Cc2cc(-c3cnn(C)c3)ccc2C(c2ccc(/C=C/C(=O)O)cc2)N1c1ccc(CC(F)(F)F)cc1 [Example 43, (E)-3-(4-((1R,3R/1S,3S)-3-Methyl-6-(1-methyl-1H-pyrazol-4-yl)-2-(4-(2,2,2-trifluoroethyl)phenyl)-1,2,3,4-tetrahydroisoquinolin-1-yl)phenyl)acrylic acid]	31.7	–
CCc1ccc(N2C(C)Cc3cc(-c4cnn(C)c4)ccc3C2c2ccc(/C=C/C(=O)O)cc2)c(CC)c1 [Example 45, (E)-3-(4-((1R,3R/1S,3S)-2-(2,4-Diethylphenyl)-3-methyl-6-(1-methyl-1H-pyrazol-4-yl)-1,2,3,4-tetrahydroisoquinolin-1-yl)phenyl)acrylic acid]	4.06	–
